Assay results: article PMC12649549, “Sequence Permutation Generated Lysine and Tryptophan-Rich Antimicrobial Peptides with Enhanced Therapeutic Index” (Antibiotics, 2025)
Like-named read-outs stand apart in the source and are kept apart here.

What was measured:
[1] = test system: A. baumannii 14B0097 (Acinetobacter sp., BCRC number 14B0097)
Summary of the method: (§1)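 Broth microdilution per CLSI in Müller-Hinton broth and modified LYM broth (pH 7.4; variants with 50–300 mM NaCl, 0.5–2.5 mM MgCl2, or pH 6.5–4.5). Inoculum 5 × 10^5 CFU/mL; peptides tested at 0.78–50 µg/mL final. MIC read; three independent repeats.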

[2] = test system: Pseudomonas aeruginosa Migula (ATCC 27853)
Summary of the method: as §1

[3] = test system: S. aureus ATCC 33593
Summary of the method: as §1

[4] = test system: S. aureus ATCC 33592
Summary of the method: as §1

[5] = test system: Gram-positive bacteria; assay: Geometric mean MIC and therapeutic index, Gram-positive bacteria; format: cell-based; conditions: Gram-positive bacteria; for GM G+ (geometric mean of the MIC values): MH broth, MIC >50 µg/mL counted as 100 µg/mL; for Therapeutic Index (TI) G+: HC10/GM
Summary of the method: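 CLSI broth microdilution in MH broth or modified LYM broth (pH 7.4, varied NaCl, MgCl2, pH), 5 × 10^5 CFU/mL, peptides 0.78–50 µg/mL; three independent repeats.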

[6] = LYM broth, 0 mM NaCl, 16 h, 37 °C
[7] = LYM broth, 50 mM NaCl, 16 h, 37 °C
[8] = LYM broth, 100 mM NaCl, 16 h, 37 °C
[9] = LYM broth, 200 mM (NaCl), 16 h, 37 °C
[10] = LYM broth, 300 mM (NaCl), 16 h, 37 °C
[11] = MH broth, 5 × 10^5 CFU/mL, 16 h, 37 °C, repeated three times

Substance: Ac-WLKWLAKKKKWRK-NH2 [Peptide W5K05]
- MIC [1, 6]: 1.56 µg/mL
- MIC ([1]; LYM broth, 0.5 mM MgCl2): 1.56 µg/mL
- MIC ([1]; LYM broth, 1.5 mM MgCl2): 1.56 µg/mL
- MIC ([1]; LYM broth, 2.5 mM MgCl2): 1.56 µg/mL
- MIC [1, 7]: 3.13 µg/mL
- MIC [1, 8]: 3.13 µg/mL
- MIC [1, 9]: 6.25 µg/mL
- MIC [1, 10]: 25 µg/mL
- MIC ([1]; LYM broth, pH 4.5): 3.13 µg/mL
- MIC ([1]; LYM broth, pH 5.5): 1.56 µg/mL
- MIC ([1]; LYM broth, pH 6.5): 1.56 µg/mL
- MIC [1, 11]: 6.25 µg/mL
- MIC [2, 6]: 3.13 µg/mL
- MIC ([2]; LYM broth, 0.5 mM MgCl2): 3.13 µg/mL
- MIC ([2]; LYM broth, 1.5 mM MgCl2): 3.13 µg/mL
- MIC ([2]; LYM broth, 2.5 mM MgCl2): 6.25 µg/mL
- MIC [2, 7]: 6.25 µg/mL
- MIC [2, 8]: 12.5 µg/mL
- MIC [2, 9]: >50 µg/mL
- MIC [2, 10]: >50 µg/mL
- MIC ([2]; LYM broth, pH 4.5): 1.56 µg/mL
- MIC ([2]; LYM broth, pH 5.5): 1.56 µg/mL
- MIC ([2]; LYM broth, pH 6.5): 1.56 µg/mL
- MIC [2, 11]: 25 µg/mL
- MIC [3, 6]: 6.25 µg/mL
- MIC ([3]; LYM broth, 0.5 mM MgCl2): 12.5 µg/mL
- MIC ([3]; LYM broth, 1.5 mM MgCl2): 12.5 µg/mL
- MIC ([3]; LYM broth, 2.5 mM MgCl2): 12.5 µg/mL
- MIC [3, 7]: 6.25 µg/mL
- MIC [3, 8]: 12.5 µg/mL
- MIC [3, 9]: 25 µg/mL
- MIC [3, 10]: 50 µg/mL
- MIC ([3]; LYM broth, pH 4.5): 3.13 µg/mL
- MIC ([3]; LYM broth, pH 5.5): 3.13 µg/mL
- MIC ([3]; LYM broth, pH 6.5): 3.13 µg/mL
- MIC [3, 11]: 50 µg/mL
- MIC [4, 6]: 6.25 µg/mL
- MIC ([4]; LYM broth, 0.5 mM MgCl2): 12.5 µg/mL
- MIC ([4]; LYM broth, 1.5 mM MgCl2): 12.5 µg/mL
- MIC ([4]; LYM broth, 2.5 mM MgCl2): 12.5 µg/mL
- MIC [4, 7]: 12.5 µg/mL
- MIC [4, 8]: 12.5 µg/mL
- MIC [4, 9]: 25 µg/mL
- MIC [4, 10]: 50 µg/mL
- MIC ([4]; LYM broth, pH 4.5): 6.25 µg/mL
- MIC ([4]; LYM broth, pH 5.5): 6.25 µg/mL
- MIC ([4]; LYM broth, pH 6.5): 3.13 µg/mL
- MIC [4, 11]: 50 µg/mL
- GM G+ (geometric mean of the MIC values) [5]: 33.0 µg/mL
- Therapeutic Index (TI) G+ [5]: 3.3

Substance: Ac-WRKWLKWLAKKKK-NH2 [Peptide W5K02]
- MIC [1, 6]: 1.56 µg/mL
- MIC ([1]; LYM broth, 0.5 mM MgCl2): 1.56 µg/mL
- MIC ([1]; LYM broth, 1.5 mM MgCl2): 3.13 µg/mL
- MIC ([1]; LYM broth, 2.5 mM MgCl2): 3.13 µg/mL
- MIC [1, 7]: 1.56 µg/mL
- MIC [1, 8]: 1.56 µg/mL
- MIC [1, 9]: 3.13 µg/mL
- MIC [1, 10]: 6.25 µg/mL
- MIC ([1]; LYM broth, pH 4.5): 3.13 µg/mL
- MIC ([1]; LYM broth, pH 5.5): 3.13 µg/mL
- MIC ([1]; LYM broth, pH 6.5): 3.13 µg/mL
- MIC [1, 11]: 3.13 µg/mL
- MIC [2, 6]: 6.25 µg/mL
- MIC ([2]; LYM broth, 0.5 mM MgCl2): 6.25 µg/mL
- MIC ([2]; LYM broth, 1.5 mM MgCl2): 6.25 µg/mL
- MIC ([2]; LYM broth, 2.5 mM MgCl2): 6.25 µg/mL
- MIC [2, 7]: 6.25 µg/mL
- MIC [2, 8]: 25 µg/mL
- MIC [2, 9]: >50 µg/mL
- MIC [2, 10]: >50 µg/mL
- MIC ([2]; LYM broth, pH 4.5): 3.13 µg/mL
- MIC ([2]; LYM broth, pH 5.5): 3.13 µg/mL
- MIC ([2]; LYM broth, pH 6.5): 3.13 µg/mL
- MIC [2, 11]: 25 µg/mL
- MIC [3, 6]: 6.25 µg/mL
- MIC ([3]; LYM broth, 0.5 mM MgCl2): 6.25 µg/mL
- MIC ([3]; LYM broth, 1.5 mM MgCl2): 6.25 µg/mL
- MIC ([3]; LYM broth, 2.5 mM MgCl2): 6.25 µg/mL
- MIC [3, 7]: 6.25 µg/mL
- MIC [3, 8]: 12.5 µg/mL
- MIC [3, 9]: 50 µg/mL
- MIC [3, 10]: >50 µg/mL
- MIC ([3]; LYM broth, pH 4.5): 6.25 µg/mL
- MIC ([3]; LYM broth, pH 5.5): 6.25 µg/mL
- MIC ([3]; LYM broth, pH 6.5): 3.13 µg/mL
- MIC [3, 11]: 25 µg/mL
- MIC [4, 6]: 6.25 µg/mL
- MIC ([4]; LYM broth, 0.5 mM MgCl2): 6.25 µg/mL
- MIC ([4]; LYM broth, 1.5 mM MgCl2): 6.25 µg/mL
- MIC ([4]; LYM broth, 2.5 mM MgCl2): 6.25 µg/mL
- MIC [4, 7]: 6.25 µg/mL
- MIC [4, 8]: 12.5 µg/mL
- MIC [4, 9]: 50 µg/mL
- MIC [4, 10]: >50 µg/mL
- MIC ([4]; LYM broth, pH 4.5): 6.25 µg/mL
- MIC ([4]; LYM broth, pH 5.5): 6.25 µg/mL
- MIC ([4]; LYM broth, pH 6.5): 6.25 µg/mL
- MIC [4, 11]: 25 µg/mL
- GM G+ (geometric mean of the MIC values) [5]: 21.8 µg/mL
- Therapeutic Index (TI) G+ [5]: 0.8
